Data as given in patent publication US5296604A, “Proline derivatives and compositions for their use as inhibitors of HIV protease” (priority 1992, dated 1994).
Where two headings read alike, the source gives them in different places.

Target: T1, HIV protease (Human immunodeficiency virus type 1 group M subtype B, UniProt P03366)
T1 construct: the predicted size of the protease is 99 amino acids
Assay: HIV protease inhibition, fluorometric RP-HPLC assay with N-dansyl-peptide substrate
Format: biochemical
Conditions: for HIV Protease IC50 values of tested Examples (estimated): *Estimated IC50 from the observed inhibition at 10 μM concentration; for IC50 (estimated): estimated from the % inhibition at 10000 nM final; for inhibitory potency (in words): comparison by stereochemistry (2S,3S versus 2R,3R) and by hexan-1-olyl versus hexanoate group; for activity relative to range necessary for therapeutic development: in words
Description: Following synthesis, the preferred embodiment compounds were tested for HIV protease inhibition. For in vitro potency testing, the N terminus of substrate amino acid sequences were first dansylated. The amino acid sequences present in such N-dansyl-peptide substrates can include, but are not limited to native proteolytic cleavage site sequences for the HIV gag and pol polyproteins.
The prepared substrates were incubated with HIV protease and compounds of the present invention, under conditions in which the protease is catalytically active. […] Following incubation, aliquots of the incubate were analyzed with reverse phase high performance liquid chromatography (hereinafter "RP-HPLC"). Any uncoverted peptide substrate is resolved from peptide product(s) and then detected by an inline fluorescence monitor. The amount of product formed over a known time interval may then be used to calculate the activity of the enzyme under the specific assay conditions. The amount of fluorescence detected in the eluted peak from HPLC can be related to the amount of peptide in the peak by prior HPLC analysis of standardized samples. The amount of peptide in the pure, standardized samples is determined accurately by amino acid analysis.
Inhibitory potency was assessed, in vitro, according to published procedures in Tamburini et al., 1990, "A Fluorometric Assay for HIV-Protease Activity Using High-Performance Liquid Chromatography", Analytical Biochemistry, 186:363.
HIV-protease was pre-incubated with or without the inhibitor compound at 37° C. and under buffer, ionic strength and pH conditions affording optimal protease activity. An N-dansyl-peptide substrate was then added to the incubation mixture. For example the dansylated substrate could be:
N-Dansyl-Ser-Gln-Asn-Tyr-Pro-Ile-Val (SEQ ID NO: 1)
The incubation mixture was then incubated at 37° C. During the incubation, the substrate is cleaved by the protease at the Tyr-Pro peptide bond to yield N-Dansyl-Ser-Gln-Asn-Tyr (SEQ ID NO: 2). At the end of the incubation (40 min) the reaction was terminated by acidification with TFA, and the amounts of unconverted substrate and fluorescent product were detected and quantified by subsequent RP-HPLC analysis with post column fluorescence detection.
The rate of cleavage of the substrate is quantified from the amount of product formed in the known incubation time. Specific assay conditions were as follows:
Incubations (75 ul) containing the complete system without substrate were preincubated at 37° C. for 15 min prior to initiation of the protease reaction by the addition of 25 ul of stock 400 uM substrtate peptide solution. The initial component concentrations at the start of the reaction were: HIV-protease (20 ul of a dilution sufficient to produce 40 to 60% substrate cleavage in 40 min), dimethyl sulphoxide (5%v/v), N-Dansyl-Ser-Gln-Asn-Tyr- […] (SEQ ID NO: 1) (100 uM), and sodium chloride (3 M) in 150 mM mes buffer pH 6.0. After a further incubation time of 40 min at 37° C. reactions were terminated by the addition of 50 ul of 12% (v/v) tri-flouroacetic acid, and then loaded into the HPLC autosampler for analysis.
Inhibitors were added to the incubation mixtures […] to protease addition before the preincubation, as stock solutions in dimethyl suphoxide, lower concentrations of inhibitor were obtained by serial dilution of the incubation mixture containing the highest inhibitor concentration. The range of inhibitor concentrations were designed to cover the range yielding zero to 100% inhibition of protease activity. Dilution of the HIV-protease activity (so as to achieve an amount of enzyme activity in 20 ul to produce 40 to 60% substrate conversion when added to the incubation) was achieved using the following buffer: 50 mM sodium acetate buffer pH 5.2, 50 mM sodium chloride, 20 mM DL-dithiothreitol, 20% (v/v) glycerol, 0.1% (v/v) triton X-100 and 1.5 M urea. […]

[1] = Table I, NI = no inhibition at 10 μM final concentration, 37 °C, 40 min, pH 6.0, read-out: HIV Protease IC50 values of tested Examples
[2] = Table II, titrated (Dixon plot, inhibitor up to 100-10000 nM), NI = no inhibition (tested at 10000 nM), read-out: IC50 (concentration in the assay incubation which inhibits the HIV protease activity by 50%)

For `CC[C@H](C)[C@H](NC(=O)[C@@H]1CCCN1[C@H](C(=O)OC)[C@H](CC(C)C)NC(=O)[C@H](CC(N)=O)NC(=O)c1ccc2ccccc2n1)C(=O)NCc1ccccc1` [Example 14], which “HIV Protease IC50 values of tested Examples (estimated)” value (Table I) is on record?
Its value is > 50 µM.

What about the “IC50 (estimated)” value (Table II) of the same molecule?
The value was > 50 µM.

Which results are given for `CC[C@H](C)[C@H](NC(=O)[C@@H]1CCCN1[C@@H](C(=O)OC)[C@@H](CC(C)C)NC(=O)OCc1ccccc1)C(=O)NCc1ccccc1` [Example 8]?
IC50 [1]: > 10 µM; IC50 [2]: > 10 µM

`CC[C@H](C)[C@H](NC(=O)[C@@H]1CCCN1[C@@H](CO)[C@@H](CC(C)C)NC(=O)[C@H](CC(N)=O)NC(=O)c1ccc2ccccc2n1)C(=O)NCc1ccccc1` [Example 17, (2R, 3R) N-[2-(3-(N-guinaldyl-asparaginyl)amino-5-methylhexan-1-olyl)]-Prolyl-Isoleucine N-Benzyl amide] was tested. Which “HIV Protease IC50 values of tested Examples (estimated)” value (Table I) did it give?
The value was 15 µM.

And the “IC50 (estimated)” value (Table II)?
The value was 15 µM.

What about the “inhibitory potency (in words)” value of the same molecule?
Its value is “innactive or poorly active”.

`CC[C@H](C)[C@H](NC(=O)[C@@H]1CCCN1[C@H](CO)[C@H](CC(C)C)NC(=O)OCc1ccccc1)C(=O)NCc1ccccc1` [Example 9, (2S, 3S) N-[2-(3-carbobenzyoxyamino-5-methylhexan-1-olyl)]-Prolyl-Isoleucine N-Benzyl amide] was tested. Which IC50 [1] did it give?
Its IC50 is 1.9 µM.

And the “inhibitory potency (in words)” value?
The value was “significant inhibitor potency”.

What does the source list for `CC[C@H](C)[C@H](NC(=O)[C@@H]1CCCN1[C@@H](CO)[C@@H](CC(C)C)NC(=O)OCc1ccccc1)C(=O)NCc1ccccc1` [Example 10]?
IC50 [1]: > 10 µM; IC50 [2]: > 10 µM; inhibitory potency (in words): innactive or poorly active

Which IC50 [1] does the source give for `CC[C@H](C)[C@H](NC(=O)[C@@H]1CCCN1[C@H](C(=O)OC)[C@H](CC(C)C)NC(=O)[C@H](CC#N)NC(=O)OCc1ccccc1)C(=O)NCc1ccccc1` [Example 11a] here?
The IC50 was > 10 µM.

What about the IC50 [2] of the same molecule?
The IC50 was > 10 µM.

What does the source list for `CC[C@H](C)[C@H](NC(=O)[C@@H]1CCCN1[C@H](CO)[C@H](CC(C)C)NC(=O)[C@H](CC(N)=O)NC(=O)c1ccc2ccccc2n1)C(=O)NCc1ccccc1` [Example 15]?
increase in inhibitory potency by N-quinaldehyde in place of N-carbo-benzyloxy (Example 15 versus Example 12): 3.6 fold; IC50 [1]: 0.035 µM; inhibitory potency (in words): significant inhibitor potency; activity relative to range necessary for therapeutic development: within the range necessary for therapeutic development

How did the “increase in inhibitory potency by additional Asn residue” value (Example 12 versus Example 9) turn out when `CC[C@H](C)[C@H](NC(=O)[C@@H]1CCCN1[C@H](CO)[C@H](CC(C)C)NC(=O)[C@H](CC(N)=O)NC(=O)OCc1ccccc1)C(=O)NCc1ccccc1` [Example 12, (2S, 3S) N-[2-(3-(N-carbobenzyloxy-asparaginyl)amino-5-methylhexan-1-olyl)]-Prolyl-Isoleucine N-Benzyl amide] was run?
The value was 152 fold.

What about the IC50 [1] of the same molecule?
The IC50 was 0.125 µM.

What about the “inhibitory potency (in words)” value of the same molecule?
Its value is “significant inhibitor potency”.

What about the “activity relative to range necessary for therapeutic development” value of the same molecule?
Its value is “within the range necessary for therapeutic development”.

What does the source list for `CC[C@H](C)[C@H](NC(=O)[C@@H]1CCCN1[C@H](C(=O)OC)[C@H](CC(C)C)NC(=O)[C@H](CC(N)=O)NC(=O)OCc1ccccc1)C(=O)NCc1ccccc1` [Example 11b]?
HIV Protease IC50 values of tested Examples (estimated) (Table I): 15 µM; IC50 (estimated) (Table II): 15 µM

For `CC[C@H](C)[C@H](NC(=O)[C@@H]1CCCN1[C@H](C(=O)OC)[C@H](CC(C)C)NC(=O)OCc1ccccc1)C(=O)NCc1ccccc1` [Example 7, (2S, 3S) N-[methyl 2-(3-carbobenzyloxyamino-5-methyl-hexanoyl)]-Prolyl-Isoleucine N-Benzyl amide], which IC50 [1] is on record?
The IC50 was > 10 µM.

What about the IC50 [2] of the same molecule?
Its IC50 is > 10 µM.

How did the IC50 [1] turn out when `CC[C@H](C)[C@H](NC(=O)[C@@H]1CCCN1[C@@H](C(=O)OC)[C@@H](CC(C)C)NC(=O)[C@H](CC(N)=O)NC(=O)c1ccc2ccccc2n1)C(=O)NCc1ccccc1` [Example 16, (2R, 3R) N-[2 (3-(N-guinaldyl-asparaginyl)amino-5-methyl-hexanoate)]-Prolyl-Isoleucine N-Benzyl amide] was run?
Its IC50 is > 10 µM.

And the IC50 [2]?
The IC50 was > 10 µM.
